Test results as given in US20200093768A1, “METHOD FOR TREATING DIABETES” (Huanggang Normal University, priority 2018, published 2020).
Marks after values point to notes of the source that are not given here.

Columns and labels:
[1] = tested on: Zucker diabetic fatty (ZDF) rats; assay: Fasted and fed blood glucose in ZDF rats; conditions: for Fasted blood glucose levels: 5 hrs fasted, versus ZDF vehicle control (FIG. 1A)
[2] = tested on: Zucker diabetic fatty (ZDF) rats; assay: Anti-inflammatory cytokines (IL-4, IL-10, IL-13) by ELISA; format: in vivo, rat; conditions: for IL-10 plasma levels: versus ZDF controls (FIG. 5B)
Description: On study day 30, blood was collected at CRL.
The expression of inflammatory genes in blood and epididymal adipose tissue was next analyzed. A panel of three anti-inflammatory cytokines in whole blood was quantified by ELISA analysis as a measure for systemic inflammation (FIG. 5). IL-4, IL-10 and IL-13 are involved in the reduction of the inflammatory response through inhibition of NFκB signaling and cytokine release from macrophages.

[3] = tested on: inflammatory genes (COX-2, ICAM-1, IL-1β, IL-6, TNF-α) in whole blood; assay: TaqMan qPCR of inflammatory genes in whole blood; format: in vivo, rat; conditions: ZDF rats, normalized to GAPDH, versus ZDF controls (FIG. 6A)
Description: On study day 30, blood was collected at CRL. HbA1c was measured at 8 hrs on a drop of tail whole blood and then animals were fasted. At 11 hrs, animals were dosed per normal and euthanized at 13 hrs by CO2 asphyxiation. Blood was withdrawn by cardiac puncture and 1 mL of whole blood placed into cryo vials for RNA extraction. Remaining blood was centrifuged (at 2200×g for 10 minutes at 22° C.) and serum (500 uL) pipetted into 96 well plates on dry ice for analysis of the following: insulin, adiponectin, clinical chemistry panel with lipid parameters, and the inflammatory panel. Liver, epididymal fat, kidney, heart and spleen were collected and a representative piece was snap frozen. 100 mg of tissue was transferred into 1.5 mL cold RNA later tubes and stored overnight at 4° C. before being moved to −20° C. […]
In the next set of experiments, the expression of a subset of inflammatory genes were quantified in whole blood (FIG. 6A) and epididymal fat tissue (FIG. 6B): cyclooxygenase-2 (COX-2), intracellular adhesion molecule-1 (ICAM-1), interleukin-1β (IL-1β), interleukin-6 (IL-6) and tumor necrosis factor-α (TNF-α) by TaqMan qPCR analysis. […]

[4] = tested on: Zucker diabetic fatty (ZDF) rats; assay: Oral glucose tolerance test (OGTT) on study day 29; conditions: day 29, overnight fasted, glucose 2 g/kg, versus ZDF vehicle control, metformin from 15 min (p<0.01), ibuprofen at 15 min (p<0.01) and 30 min (p<0.05)
[5] = tested on: Zucker diabetic fatty (ZDF) rats; assay: HbA1c analysis in whole blood; format: in vivo, rat; conditions: after 30 days of treatment, versus ZDF controls (FIG. 3A)
Description: On study day 30, blood was collected at CRL. […] Glycated hemoglobin (HbA1c) levels in venous whole blood were determined at CRL using the HbA1c Now test kit (Bayer, Whippany, N.J.). HbA1c was measured in treatment groups by immunoassay with anti-HbA1c using tail nick whole blood.

[6] = tested on: Zucker diabetic fatty (ZDF) rats; assay: Clinical chemistry analysis: insulin, adiponectin, lipid parameters; format: in vivo, rat
Description: Plasma analysis of insulin, adiponectin, cytokines and a full clinical chemistry panel with lipid parameters was performed at CRL using commercially available ELISA and colorimetric kits.

[7] = Body weight, food intake and BMI of ZDF rats treated once daily for 30 days; format: in vivo, rat; parameters: Food Intake / BMI: unit not given here; conditions: for Change in body weight versus ZDF control (in words): ibuprofen between day 8 and 26; for BMI / Body Weight / Food Intake: oral gavage once daily (metformin 250 mg/kg, ibuprofen 100 mg/kg); for BMI / Food Intake: n=8; for Body Weight: n=8, in g (unit assumed); for Food Intake: recorded weekly
[8] = tested on: hyperglycemic adults; conditions: clinical pilot study, low dosage of ibuprofen; cited from earlier work
[9] = after 30 days, versus ZDF controls (FIG. 4D-F)
[10] = Day 29 (after overnight fasting), mean

Row | SMILES | Fasted blood glucose levels [1] | IL-10 plasma levels [2] | Blood glucose in OGTT [4] | Glycated hemoglobin (HbA1c) [5] | Fasting cholesterol [6, 9] | HDL [6, 9] | Change in food intake versus ZDF control (in words) ([7]; chronic treatment) | Change in body weight versus ZDF control (in words) ([7]; chronic treatment) | BMI ([7]; Day 1, mean) | Body Weight ([7]; Day 1, mean) | Body Weight ([7]; Day 4, mean) | BMI ([7]; Day 8, mean) | Body Weight ([7]; Day 8, mean) | Body Weight ([7]; Day 11, mean) | BMI ([7]; Day 15, mean) | Body Weight ([7]; Day 15, mean) | Body Weight ([7]; Day 19, mean) | BMI ([7]; Day 22, mean) | Body Weight ([7]; Day 22, mean) | Body Weight ([7]; Day 26, mean) | further results
1 | CN(C)C(=N)NC(=N)N [metformin, 1,1-dimethylbiguanide] | significant decrease | No significant changes | significant decline in blood glucose | did not significantly affect | No significant differences | No significant differences | did not cause any significant changes | did not cause any significant changes | 2.60 | 376.6 | 377.8 | 2.57 | 388.5 | 396.1 | 2.47 | 390.9 | 400.8 | 2.52 | 399.9 | 405.6 | Fed glucose levels ([1]; fed, versus ZDF vehicle control (FIG. 1B)): significant higher levels on day 22 and 28; ICAM-1 gene expression [3]: no differences; LDL [6, 9]: No significant differences; Plasma insulin levels ([6]; day 30 (FIG. 3B)): 1.54 ng/mL; Change in BMI versus ZDF control (in words) ([7]; chronic treatment): did not cause any significant changes; Body Weight [7, 10]: 378.9; BMI ([7]; Day 29, mean): 2.39; Food Intake ([7]; Day 8, mean): 255.1; Food Intake ([7]; Day 15, mean): 309.9; Food Intake ([7]; Day 22, mean): 299.1; Food Intake ([7]; Day 28, mean): 278.8
2 | CC(C)Cc1ccc(C(C)C(=O)O)cc1 (stereo not drawn) [ibuprofen, 2-(4-Isobutylphenyl)propanoic acid] | did reduce fasting blood glucose levels but this was not significant | No significant changes | significant decrease in blood glucose | attenuated the glycation of hemoglobin | strong decline | strong decline | lower food intake | decline in body weight | 2.67 | 386.5 | 370.8 | 2.51* | 376.4** | 379.4* | 2.44 | 377.9 | 376.3* | 2.47 | 385.8 | 380.6* | IL-4 level ([2]; versus ZDF controls (FIG. 5A)): significantly increased; IL-13 levels ([2]; versus ZDF controls (FIG. 5C)): increased; Glucose and insulin in hyperglycemic adults [8]: did not reveal major differences; Body Weight [7, 10]: 359.0; BMI ([7]; Day 29, mean): 2.28; Food Intake ([7]; Day 8, mean): 225.4**; Food Intake ([7]; Day 15, mean): 258.8*; Food Intake ([7]; Day 22, mean): 233.5*; Food Intake ([7]; Day 28, mean): 239.3*
